In US20150118305A1, “COMPOSITIONS COMPRISING SULFORAPHANE OR A SULFORAPHANE PRECURSOR AND URSOLIC ACID” (Nutramax Laboratories, Inc., priority 2012, published 2015):

Experiments:
[1] = test system: matrix metalloproteinase-9 (MMP-9) gene expression; assay: MMP-9 gene expression in PC3 cells by quantitative RT-PCR (Example 6); type: cell-based; conditions: PC3, 24 hours
Protocol: The following study was conducted to determine the effect of the combination of sulforaphane and ursolic acid on matrix metalloproteinase-9 (MMP-9) gene expression. The MMP-9 gene encodes the protein that is known to degrade the extracellular matrix, which is the support system of cells. In prostate, colon, brain, and other cancers, MMP9 expression is increased, and this increase has been correlated with metastasis. A decrease in MMP-9 is favorable for these cancers.
In the study, the prostate cancer cell line PC3 was treated with DMSO (vehicle control), sulforaphane (SFN), ursolic acid (UA), or the combination of sulforaphane and ursolic acid, for 24 hours. Gene expression of MMP-9 was analyzed via quantitative RT-PCR. FIGS. 5a and 5b and FIG. C show the results of the study.
Two separate treatments were conducted. […] The following reductions in gene expression of MMP-9 were observed: (i) a 5% decrease with 1 μM SFN alone, (ii) a 31% decrease with 5 μg/mL UA alone, and (iii) a 40% decrease with the combination of 1 μM SFN and 5 μg/mL UA. […] The following reductions in gene expression of MMP-9 were observed: (i) a 13% decrease with 1 μM SFN alone, (ii) a 28% decrease with 5 μg/mL UA alone, and (iii) a 45% decrease with the combination of 1 μM SFN and 5 μg/mL UA.
The following reductions in gene expression of MMP-9 were observed: (i) a 39% decrease with 5 μM SFN alone, (ii) a 15% decrease with 10 μg/mL UA alone, and (iii) a 59% decrease with the combination of 5 μM SFN and 10 μg/mL UA.

heme oxygenase-1 (HO-1) = conditions: oral administration; mammary epithelium; cited from earlier work
[2] = test system: NAD(P)H:quinine oxidoreductase (NQO1); conditions: oral administration; mammary epithelium; cited from earlier work
[3] = test system: broccoli sprout-derived myrosinase; assay: Consumption of glucoraphanin by myrosinase as a function of ascorbic acid concentration (Example 3); type: biochemical; conditions: for glucoraphanin (GR) content of reaction mixture: 38° C.
Protocol: About 250 mg of broccoli seed extract containing about 12% (w/w) glucoraphanin were subjected to hydrolysis by a fixed concentration of broccoli sprout-derived myrosinase in the presence of variable concentration of ascorbic acid, ranging from 0 to 600 μmoles/Liter. The reaction mixtures were thermostated at 38° C.; aliquots were withdrawn every 15 minutes for 60 minutes, and concentration of glucoraphanin determined chromatographically. The rate of glucoraphanin consumption was interpreted as the rate its conversion to sulforaphane. Graphical representation of glucoraphanin content reduction as a function of increasing ascorbic acid concentration results in a series of linear plots; the slopes of the linear regression lines reflect the rate of glucoraphanin consumption, in pmoles/minute. It is apparent that in the presence of 600 μmoles/Liter concentration of ascorbic acid, the reaction rate increased 13-fold relative to that which proceeded in the absence of modulatory effects of ascorbic acid.

myrosinase [4] = assay: Conversion of glucoraphanin to sulforaphane in Simulated Intestinal Fluid (Example 5); type: biochemical, broccoli; conditions: 38° C., 0.25 to 1.00 mmol/Liter ascorbic acid, FIG. 4
Protocol: Simulated Intestinal Fluid (SIF) powder, a commercially supplied concentrate closely approximating the human intestinal content in terms of composition, pH and ionic strength, was used. The experiment utilized a USP Dissolution Apparatus 2 (paddles), where into six dissolution vessels 500 mL of Simulated Intestinal Fluid was dispensed, along with 150 mg of freeze-dried broccoli sprout powder as a source of myrosinase. […] Aliquots were withdrawn every 15 minutes, and assayed for sulforaphane.

myrosinase [5] = assay: Equimolar conversion of glucoraphanin to sulforaphane, ascorbic acid modulating myrosinase activity (Example 4); type: biochemical; conditions: Part 2; 250 mg broccoli seed extract
Protocol: A two-part experiment was conducted to further elucidate the role of ascorbic acid in modulating myrosinase activity. […] A control sample contained no ascorbic acid, and the enzymatic conversion proceeded unassisted by a co-factor. PART 1. […] PART 2. While keeping the amount of broccoli seed extract fixed at 250 mg, the concentration of ascorbic acid was varied from 0.4 mmol/Liter to 3.8 mmol/Liter.

## C[S+]([O-])CCCCN=C=S (centres unmarked) [SFN, 1-isothiocyanato-4-methylsulfinylbutane]
[1]; 1 μM SFN alone, Part 1 first treatment (FIG. 5a)
  decrease in gene expression of MMP-9: 5%
[1]; 1 μM SFN alone, Part 1 second treatment (FIG. 5b)
  decrease in gene expression of MMP-9: 13%
[1]; 5 μM SFN alone, Part 2 (FIG. 6)
  decrease in gene expression of MMP-9: 39%
Heme oxygenase-1 (HO-1)
  elevated immunostaining of HO-1 enzyme: 4 fold
[2]
  increase in NQO1 enzymatic activity: 3 fold

## C[C@H]1[C@H](C)CC[C@]2(C(=O)O)CC[C@]3(C)C(=CC[C@@H]4[C@@]5(C)CC[C@H](O)C(C)(C)[C@@H]5CC[C@]43C)[C@H]12 [UA, (1S,2R,4aS,6aR,6aS,6bR,8aR,10S,12aR,14bS)-10-hydroxy-1,2,6a,6b,9,9,12a-heptamethyl-2,3,4,5,6,6a,7,8,8a,10,11,12,13,14b-tetradecahydro-1H-picene-4a-carboxylic acid]
[1]; 5 μg/mL UA alone, Part 1 first treatment (FIG. 5a)
  decrease in gene expression of MMP-9: 31%
[1]; 5 μg/mL UA alone, Part 1 second treatment (FIG. 5b)
  decrease in gene expression of MMP-9: 28%
[1]; 10 μg/mL UA alone, Part 2 (FIG. 6)
  decrease in gene expression of MMP-9: 15%

## O=C1O[C@H]([C@@H](O)CO)C(O)=C1O [Ascorbic Acid, ascorbic acid]
[3]; 50 μM ascorbic acid
  Slope of linear regression (rate of glucoraphanin consumption): -0.286 µmol/min
[3]; 50 μM ascorbic acid, 0 min
  glucoraphanin (GR) content of reaction mixture: 93.36 µmol
[3]; 50 μM ascorbic acid, 15 min
  glucoraphanin (GR) content of reaction mixture: 89.20 µmol
[3]; 50 μM ascorbic acid, 30 min
  glucoraphanin (GR) content of reaction mixture: 84.24 µmol
[3]; 50 μM ascorbic acid, 45 min
  glucoraphanin (GR) content of reaction mixture: 80.30 µmol
[3]; 50 μM ascorbic acid, 60 min
  glucoraphanin (GR) content of reaction mixture: 76.36 µmol
[3]; 125 μM ascorbic acid
  Slope of linear regression (rate of glucoraphanin consumption): -0.5622 µmol/min
[3]; 125 μM ascorbic acid, 0 min
  glucoraphanin (GR) content of reaction mixture: 93.36 µmol
[3]; 125 μM ascorbic acid, 15 min
  glucoraphanin (GR) content of reaction mixture: 84.52 µmol
[3]; 125 μM ascorbic acid, 30 min
  glucoraphanin (GR) content of reaction mixture: 75.92 µmol
[3]; 125 μM ascorbic acid, 45 min
  glucoraphanin (GR) content of reaction mixture: 68.09 µmol
[3]; 125 μM ascorbic acid, 60 min
  glucoraphanin (GR) content of reaction mixture: 59.41 µmol
[3]; 250 μM Filtered ascorbic acid
  Slope of linear regression (rate of glucoraphanin consumption): -0.4714 µmol/min
[3]; 250 μM Filtered ascorbic acid, 0 min
  glucoraphanin (GR) content of reaction mixture: 93.36 µmol
[3]; 250 μM Filtered ascorbic acid, 15 min
  glucoraphanin (GR) content of reaction mixture: 86.31 µmol
[3]; 250 μM Filtered ascorbic acid, 30 min
  glucoraphanin (GR) content of reaction mixture: 79.44 µmol
[3]; 250 μM Filtered ascorbic acid, 45 min
  glucoraphanin (GR) content of reaction mixture: 71.94 µmol
[3]; 250 μM Filtered ascorbic acid, 60 min
  glucoraphanin (GR) content of reaction mixture: 65.18 µmol
[3]; 250 μM ascorbic acid
  Slope of linear regression (rate of glucoraphanin consumption): -0.7901 µmol/min
[3]; 250 μM ascorbic acid, 0 min
  glucoraphanin (GR) content of reaction mixture: 93.36 µmol
[3]; 250 μM ascorbic acid, 15 min
  glucoraphanin (GR) content of reaction mixture: 80.95 µmol
[3]; 250 μM ascorbic acid, 30 min
  glucoraphanin (GR) content of reaction mixture: 69.06 µmol
[3]; 250 μM ascorbic acid, 45 min
  glucoraphanin (GR) content of reaction mixture: 57.63 µmol
[3]; 250 μM ascorbic acid, 60 min
  glucoraphanin (GR) content of reaction mixture: 45.76 µmol
[3]; 400 μM ascorbic acid
  Slope of linear regression (rate of glucoraphanin consumption): -1.007 µmol/min
[3]; 400 μM ascorbic acid, 0 min
  glucoraphanin (GR) content of reaction mixture: 93.36 µmol
[3]; 400 μM ascorbic acid, 15 min
  glucoraphanin (GR) content of reaction mixture: 78.32 µmol
[3]; 400 μM ascorbic acid, 30 min
  glucoraphanin (GR) content of reaction mixture: 62.78 µmol
[3]; 400 μM ascorbic acid, 45 min
  glucoraphanin (GR) content of reaction mixture: 47.67 µmol
[3]; 400 μM ascorbic acid, 60 min
  glucoraphanin (GR) content of reaction mixture: 33.15 µmol
[3]; 600 μM ascorbic acid
  Slope of linear regression (rate of glucoraphanin consumption): -1.2 µmol/min
[3]; 600 μM ascorbic acid, 0 min
  glucoraphanin (GR) content of reaction mixture: 93.36 µmol
[3]; 600 μM ascorbic acid, 15 min
  glucoraphanin (GR) content of reaction mixture: 75.02 µmol
[3]; 600 μM ascorbic acid, 30 min
  glucoraphanin (GR) content of reaction mixture: 55.66 µmol
[3]; 600 μM ascorbic acid, 45 min
  glucoraphanin (GR) content of reaction mixture: 37.50 µmol
[3]; 600 μM ascorbic acid, 60 min
  glucoraphanin (GR) content of reaction mixture: 22.09 µmol
[3]; 600 μmoles/Liter ascorbic acid
  increase of reaction rate relative to absence of ascorbic acid: 13 fold
Myrosinase [4]
  sulforaphane yield versus ascorbic acid concentration: direct correlation between larger yield of sulforaphane and higher concentrations of ascorbic acid
Myrosinase [5]
  ascorbic acid concentration up to which myrosinase-promoted conversion increases apparently linearly, then levels off: about 2 mmol/L
